# Laboratory results as given in patent US8497075B2, “Methods of identifying a modulator that inhibits the binding between Epstein-Barr virus induced receptor 2 and cholesterol derived ligands” (Novartis AG, priority 2008, dated 2013).
# Read-outs that look alike come from different tables or passages of the source.
# Tests used:
# Parameters in all cases: expressed in transfected cells; host or cells: CHO-K1 expressing apoaequorin (CHO-Aeq) with Gqi5; line E2
# [1] = target: T1, hEBI2 (Homo sapiens, UniProt P32249); assay: calcium fluorescence (FLIPR); assay type: cell-based
# T1 sequence (P32249 whole entry): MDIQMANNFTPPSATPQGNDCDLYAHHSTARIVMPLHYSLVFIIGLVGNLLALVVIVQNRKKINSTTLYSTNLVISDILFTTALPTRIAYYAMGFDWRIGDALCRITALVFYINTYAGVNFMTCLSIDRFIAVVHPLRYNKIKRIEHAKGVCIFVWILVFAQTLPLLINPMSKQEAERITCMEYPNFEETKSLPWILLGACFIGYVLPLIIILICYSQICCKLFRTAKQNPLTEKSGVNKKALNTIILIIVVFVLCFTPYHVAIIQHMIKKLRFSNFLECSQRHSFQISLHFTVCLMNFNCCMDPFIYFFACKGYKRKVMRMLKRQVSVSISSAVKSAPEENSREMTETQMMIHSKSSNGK
# Protocol: If not stated otherwise compounds were dissolved at 10 mM in DMSO or ethanol (cholesterol, 25MDC). Serial dilutions were carried out in 90% DMSO (FLIPR, GTPgS) or assay buffer (binding assay). For cell based assays final DMSO concentrations is kept below 1%.
# If not stated otherwise, the same Chinese hamster ovary (CHO) cell line called E2 which was used for the ligand identification was used in these experiments. This cell line is expressing (1) the recombinant human EBI2 receptor, (2) the promiscuous Gqi5 protein as well as (3) apo-aequorin.
# Cells were seeded in black/clear bottom, poly-D-Lysine coated 384-well plates at a cell density of 10,000 cells/25 μL/well, using culture medium. Cells were cultured for 24 hours at 37° C./5% CO2. Culture medium was removed and for cell loading, 20 μl per well of loading buffer (Calcium-4 no wash dye) were distributed into the wells and the plates were incubated for 60 min at 37° C. in 5% CO2. With the FLIPR pipettor, 10 μl of the different compounds were added to the cells and the subsequent fluorescent changes monitored for 3 minutes. Using the FLIPR software tool, 2 values of fluorescence calcium responses were exported: Fmax, the fluorescence at the peak and Fbasal corresponding to the value prior to compound injection. From these two values, the calcium response is normalized with respect to the calcium baseline values using dF/F=(Fmax−Fbasal)/Fbasal. The maximum dF/F is called Emax.
# [2] = target: T1, hEBI2; assay: GTPγS assay on EBI2 membranes; assay type: biochemical
# Protocol: (§1) The cell suspension was then homogenized using a Dounce homogenizer (10 strokes) with a driller. After centrifugation at 110000×g for 45 minutes and removal of the supernatant, pellets were resuspended in sucrose buffer (50 mM Tris pH7.2, 250 mM sucrose, 10% glycerol) by vortexing. The suspension was again homogenize using a Dounce homogenizer (10 strokes) and spun at 100000×g for 45 minutes. The supernatant was discarded, the pellet resuspended in sucrose buffer, protein concentration determined, aliquoted and frozen at −80° C. These membrane preparations were used in binding as well as GTPgS assays.
# Ten micrograms of EBI2 membranes are dissolved in 40 μl of buffer A (20 mM Hepes pH 7.4, 100 mM NaCl, 1.5 mM MgCl2, Saponin 10 μg/ml) supplemented with 10 μM GDP. After addition of […] scintilation proximity assay (SPA) beads (100 μg/well, Amersham, RPNQ0001) components are gently mixed and incubated at RT for 15 minutes. Twenty microliters of compound diluted in buffer A and 20 μl of GTPγ^35S (Perkin Elmer NEG030X) is added before incubation for one hour at RT. Plates are transferred and counted in a TopCount (Perkin Elmer NXT HTS™) and counts are analysed plotted and to determine half maximal concentrations of activation using standard software (Prism™, GraphPad Software Inc.).
# [3] = target: T1, hEBI2; assay: [3H] 7a,25DHC radio-ligand binding assay (SPA), IC50 determination
# Protocol: as §1
# Lyophilized wheat germ agglutinin scintilation proximity assay (SPA) beads (RPNQ0001) were purchased from GE Healthcare (Buckinghamshire, UK). One vial (500 mg) is reconstituted by adding 5 mL of distilled water to give a final concentration of 100 mg/mL. Reconstituted SPA beads must be stored at 4° C., but must not be frozen. [3H]-7a,25-OHC, was synthesized by reduction of the 7-keto, 25DHC in the presence of 3H-L-selectride.
# The SPA assay was performed in a final volume of 50 μl per well in a 384-well polystyrene Opti plate. The components were added into the wells as follows: • 10 μl tested compounds in 50 mM Tris; 100 mM NaCl; 5 mM MgCl2 and 0.1% Cyclodextrine.
# Total binding was determined by the addition of 10 μl of 50 mM Tris; 100 mM NaCl; 5 mM MgCl2 and 0.1% Cyclodextrine and non-specific binding was determined by the addition of 10 μl NVP-BYX998-NX-4 (final concentration of 10 μM). • 20 μL of 10 nM final [3H]-BYX998 in assay buffer (50 mM Tris-HCl, 100 mM NaCl, 5 mM MgCl2 and 0.1% Cyclodextrine). • 20 μL of a mixed bead and membrane suspension in assay buffer, in order to get a final concentration of 20 μg membranes/well and 200 μg beads/well.
# The plates were sealed and shaken at room temperature for 10 minutes then allowed to stand at room temperature for at least 12 hours. The plates were counted using a Perkin Elmer TopCount reader, each well being counted for 1 minute.
# Each IC50 determination was performed with 11 concentrations.
# A standard data reduction algorithm was used to calculate the percentage of specific binding in the presence of test compound as follows: ((B−NSB)/(Total−NSB))·100, where B=Binding in the presence of test compound (in cpm) NSB=Non-specific binding in the presence of excess inhibitor (in cpm) Total=Binding in the absence of test compound (in cpm) Curve fitting of the normalized concentration response curves using a four parameter logistic fit is then performed using XLfit (v.2 or v.4, IDBS, Guildford, UK). The equation used is XLfit equation no. […] By default, min is fixed at 0, whereas max is not fixed.
# [4] = 10 nM radioligand, n = 3, read-out: [^3H] 7a,25DHC Binding IC50
SMILES,EC50 [1] [nM],EC50 [2] [nM],"IC50 [3, 4] [nM]",IC50 [3] [nM],"EC50 ([1]; n = 3-4, read-out: FLIPR EC50) [nM]","EC50 ([2]; n = 3-4, read-out: GTPgS EC50) [nM]"
"C[C@H](CCCC(C)(C)O)[C@H]1CC[C@H]2[C@@H]3[C@H](O)C=C4C[C@@H](O)CC[C@]4(C)[C@H]3CC[C@]12C [7a,25DHC, cholest-5-ene-3b,7a,25-triol]",1.9,7.5,70.4,–,–,–
"CC(CO)CCC[C@@H](C)[C@H]1CC[C@H]2[C@@H]3[C@H](O)C=C4C[C@@H](O)CC[C@]4(C)[C@H]3CC[C@]12C (stereo partly drawn) [7a,27DHC, cholest-5-ene-3b,7a,27-triol]",4.8,5.1,–,362,–,–
"C[C@H](CCCC(C)(C)O)[C@H]1CC[C@H]2[C@@H]3[C@@H](O)C=C4C[C@@H](O)CC[C@]4(C)[C@H]3CC[C@]12C [7b,25DHC, cholest-5-ene-3b,7b,25-triol]",–,–,2630,–,121,221
